Results taken from patent publication US5077309A, “Prostaglandins” (National Research Development Corporation, priority 1986, dated 1991).

Experiments:
[1] = biological target: T1, human platelet system (thromboxane receptor sites) (Homo sapiens, UniProt P21731); experiment: Human platelet system: antagonism of 11,9-(epoxymethano) PGH2-induced aggregation of washed platelets (Gaddum-Schild KB); assay type: cell-based; settings: agonist 11,9-(epoxymethano) PGH2, compound added 5 minutes before agonist, read-out: affinity constant KB (converted)
T1 construct: Washed platelets are prepared by centrifugation; endogenous in cells; host or cells: washed human platelets
T1 sequence (P21731 1-343): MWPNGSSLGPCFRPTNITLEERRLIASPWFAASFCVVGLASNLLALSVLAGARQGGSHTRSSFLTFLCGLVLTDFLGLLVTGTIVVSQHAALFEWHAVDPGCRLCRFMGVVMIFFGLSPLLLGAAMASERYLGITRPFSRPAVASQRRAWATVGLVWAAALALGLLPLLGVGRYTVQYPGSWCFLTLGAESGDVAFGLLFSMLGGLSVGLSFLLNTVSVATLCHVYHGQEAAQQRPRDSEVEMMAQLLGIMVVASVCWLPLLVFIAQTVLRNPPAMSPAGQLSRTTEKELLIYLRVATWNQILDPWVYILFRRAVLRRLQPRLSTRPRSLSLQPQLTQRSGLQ
Method: Washed platelets are prepared by centrifugation of plateletrich human plasma at 600×g for 20 minutes. The platelet pellet is resuspended in Ca^++ -free Kreb's solution.
Addition of the agonist 11.9-(epoxymethano) PGH2 (1×10^-7 to 5×10^-7 M) causes immediate aggregation recorded as an increase in light transmission (600 nm). In a second experiment the compound under test is added 5 minutes previous to the addition of the PGH2 analogue. The dose of the PGH2 analogue added is then increased to a level which gives a similar response to that obtained in the absence of antagonist.
(§1) In the case of each system, the affinity constant, KB, for the compound under test is calculated according to the Gaddum-Schild equation (based on Law of Mass Action). [formula]

[2] = tested on: human platelet system; experiment: Prostacyclin-like activity in human platelet system (antagonism of ADP); assay type: cell-based
[3] = tested on: guinea pig bronchoconstriction; experiment: Modified Konzett-Rossler test: inhibition of PGH2 analogue-induced bronchoconstriction in anaesthetised guinea pig; assay type: in vivo
Method: A male albino guinea pig is anaethetised with a mixture of allyl barbituric acid and ethyl carbamate and the guinea pig is given intravenously a dose of 0.35 μg/kg of 11,9-(epoxymethane) PGH2. After a further period of 10 minutes, the guinea pig is treated intravenously with a dose of 0.3 mg/kg of trans-5-(6'-carboxy-5'-oxahexyl)-6-(1'-[N-phenylthiocarbamoyl-hydrazono]-ethyl-bicyclo [2,2,2] octane.
The guinea pig is then used in a modified Konzett-Rossler test which gives a measure of the inhibition produced by the test compound of the bronchoconstiction resulting from administration of the PGH2 derivative. This test involves artificially respiring the animals and measuring the amount of residual air with a pressure transducer.

[4] = biological target: T2, rabbit aorta (Oryctolagus cuniculus, UniProt Q6WQI8); experiment: Rabbit aorta system: antagonism of 11,9-(epoxymethano) PGH2 tension response in thoracic aorta strips (Gaddum-Schild KB); assay type: cell-based; settings: agonist 11,9-(epoxymethano) PGH2; compound added 30 minutes before agonist; head KB × 10^-6
T2 construct: functional antagonism of U46619 contraction
T2 sequence (Q6WQI8 1-233): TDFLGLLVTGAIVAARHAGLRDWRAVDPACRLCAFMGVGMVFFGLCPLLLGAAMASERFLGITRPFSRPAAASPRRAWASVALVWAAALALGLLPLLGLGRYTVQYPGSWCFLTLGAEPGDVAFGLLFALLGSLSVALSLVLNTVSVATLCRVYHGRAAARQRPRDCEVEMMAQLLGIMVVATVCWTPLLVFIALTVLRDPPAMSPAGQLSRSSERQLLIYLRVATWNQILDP
Method: Spiral strips of thoracic aorta are suspended in Kreb's Henseleit solution and aerated with 95% O2 /5% CO2 at 37° C. Tension changes are recorded with a Grass FT03 force transducer. Initially, cumulative dose response curves to 11,9-(epoxymethanol) PGH2 (2×10^-9,1×10^-8, […] and 2.5×10^-7 M) are obtained. In a second experiment the individual compounds are added 30 minutes previous to the addition of the series of agonist doses.
as §1

[5] = biological target: T3, guinea pig trachea (Cavia porcellus, UniProt A0A286Y4I8); experiment: Guinea pig trachea system: antagonism of 11,9-(epoxymethano) PGH2 tension response in trachea strips (Gaddum-Schild KB); assay type: cell-based; settings: agonist 11,9-(epoxymethano) PGH2; compound added 50 minutes before agonist; head KB × 10^-6
T3 construct: from tissue; host or cells: guinea pig trachea, spiral strips
T3 sequence (A0A286Y4I8 1-347): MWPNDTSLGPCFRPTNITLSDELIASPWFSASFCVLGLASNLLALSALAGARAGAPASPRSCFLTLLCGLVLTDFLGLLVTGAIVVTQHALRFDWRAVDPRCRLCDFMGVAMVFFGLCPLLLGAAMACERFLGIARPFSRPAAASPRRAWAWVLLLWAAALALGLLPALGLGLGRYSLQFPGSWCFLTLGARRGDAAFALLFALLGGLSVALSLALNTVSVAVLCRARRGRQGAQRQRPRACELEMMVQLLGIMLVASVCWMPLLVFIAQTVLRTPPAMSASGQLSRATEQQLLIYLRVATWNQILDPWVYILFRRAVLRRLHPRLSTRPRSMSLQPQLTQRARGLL
Method: Spiral strips of trachea are suspended in Kreb's-Henseleit solution, additionally containing atropine sulphate (2×10^-8 M) and indomethacin (10^-6 M), aerated with 95% O2 /5% CO2 and maintained at 37° C. Tension changes are recorded with a Grass FT03 force transducer. Initially, cumulative dose response curves to the agonist 11,9-(epoxymethano) PGH2 are obtained (typically at the same concentrations as for the rabbit aorta system). In a second experiment, the compound under test is added 50 minutes previous to the addition of the series of agonist doses.
as §1

Compound	Kb [4] [nM]	Kb [5] [nM]	other results
CC(=NNC(=S)Nc1ccccc1)[C@@H]1[C@H]2CC[C@H](C2)[C@H]1C/C=C\CCCC(=O)O (relative stereo) [5-endo-(6'-carboxyhex-2'-Z-enyl)-6-exo-(1'-[N-(phenylthiocarbamoyl)-hydrazono]-ethyl-bicyclo [2,2,1]heptane, reference compound]			Kb [1]: 14.3 nM
CC(=NOC(c1ccccc1)c1ccccc1)[C@@H]1C2CCC(CC2)[C@H]1CCCCOCC(=O)O (relative stereo) [Example 3, trans-5-(6'-Carboxy-5'-oxahexyl)-6-[1'-(O-diphenylmethoxyimino)ethyl]-bicyclo [2,2,2] octane]			prostacyclin-like activity as evidenced by antagonism of ADP [2]: very little prostacyclin-like activity
CC(=NNC(=S)Nc1ccccc1)[C@@H]1C2CCC(CC2)[C@H]1CCCCOCC(=O)O (relative stereo) [Example 4, trans-5-(6'-Carboxy-5'-oxahexyl)-6-(1'-[N-(phenylthiocarbamoyl)-hydrazono]-ethyl)-bicyclo [2,2,2] octane]	167		inhibition of bronchoconstriction resulting from the PGH2 analogue ([3]; 0.3 mg/kg intravenous, 11,9-(epoxymethano) PGH2 0.35 μg/kg i.v.): markedly blocked the action of the PGH2 analogue; bronchoconstriction caused by compound itself ([3]; 0.3 mg/kg, control without prior administration of PGH2 analogue): did not itself lead to any observable bronchoconstriction; Kb [1]: 4.76 nM
COc1ccc(NC(=O)NN=C(C)[C@@H]2C3CCC(CC3)[C@H]2CCCCOCC(=O)O)cc1 (relative stereo) [Example 5, trans-5-(6'-Carboxy-5'-oxahexyl)-6-(7'-[N-(p-methoxyphenyl-carbamoyl)-hydrazono]-ethyl)-bicyclo [2,2,2] octane]		~0.25	
CCCCCCNC(=S)NN=C(C)[C@@H]1C2CCC(CC2)[C@H]1CCCCOCC(=O)O (relative stereo) [Example 6, trans-5-(6'-Carboxy-5'-oxahexyl)-6'-(1'-[N-(hexylthiocarbamoyl)-hydrazono]-ethyl)-bicyclo [2,2,2] octane]		14.3	
CC(=NNC(=S)Nc1ccccc1)[C@@H]1C2CCC(CC2)[C@H]1CCCCCOCC(=O)O (relative stereo) [Example 8, trans-5-(7'-Carboxy-6'-oxaheptyl)-6-(1'-[N-(phenylthiocarbamoyl)-hydrazano]-ethyl)-bicyclo [2,2,2] octane]	192	3.7	
O=C(O)COCCOC[C@@H]1[C@@H]2CC[C@@H](C2)[C@H]1C=NOC(c1ccccc1)c1ccccc1 (relative stereo) [Example 10]	294	17.9	
